Test system: polynuclear leukocytes present in the whole blood of dogs
Assay type: cell-based
Method: The compounds according to the invention were tested for their capacity to increase non-specific phagocytosis. This test consists in measuring, after treatment by flow cytometry, the capacity of the polynuclear leukocytes present in the whole blood of dogs to phagocytose latex beads 1.8 μm in diameter, on the one hand in the absence (control) and on the other hand in the presence of a compound of the invention.

## C[C@H]1OC(=O)N[C@@H]1C(=O)N[C@@H](CCCCN)C(=O)N1C2CCC(CC2)[C@H]1C(=O)N[C@@H](CCCNC(=N)N)C(=O)O [Example 1, Cyclo(S)Thr-(S)Lys-(S)ABO-(S)Arg-OH]
  increase relative to the control of the capacity of the polynuclear leukocytes for non-specific phagocytosis: 19%

Source: patent publication US4965250A, “Peptide compounds having a nitrogenous polycyclic structure” (Adir ET CIE, priority 1987, dated 1990)
